# Test results taken from article PMC10914731, “Homo-BacPROTAC-induced degradation of ClpC1 as a strategy against drug-resistant mycobacteria” (Nature Communications, 2024).
# Values joined by “and” are separate entries in the source; they are usually repeats but may differ in a detail not shown here. Identical values can stand only once. Like-named read-outs stand apart in the source and are kept apart here.
# How the values were obtained:
# in vivo = format: in vivo, BALB/cAnNCrl mice
# Protocol: The in-life experimental procedures were conducted in strict compliance with German and European animal welfare legislation in an AAALAC-accredited facility. Male BALB/cAnNCrl mice (Charles River Laboratories Research Models and Services, 97633 Sulzfeld, Germany) were used. Animals were 9 weeks old at dosing with a body weight of 21.6–24.3 g. Animals were delivered free of pathogens according to FELASA recommendations with a health certificate provided by the breeder. Upon receipt, the state of health and sex was checked. Animals acclimatized for at least 5 days before the commencement of the in-life phase. During acclimation, animals were group-housed in individually ventilated cages, on birch wood granulate bedding with species-specific enrichment (nesting material, mouse igloo, gnawing wood). During experimental conduct, animals were housed in conventional cages with elevated grid floors. Grid floor was used to avoid contamination with test item material excreted via urine and feces and subsequent reuptake during fur grooming. No bedding and enrichment were provided except a cage divider, which can be used as a shelter. Animals always had unlimited access to food and water and received a pelleted, total pathogen-free maintenance diet and tap drinking water, sterilized by filter.
# In case of incomplete dissolution, the formulation was filtered at 40 °C (non-pyrogenic sterile-R filter, 0.2 µm). All formulations were stirred warm until administration. Actual test item content was determined bioanalytically.
# Male BALB/cAnNCrl mice (n = 3 per test item and administration route) received a bolus dose of the formulated test item(s) (1 mg/kg iv, 30 mg/kg po) at t = 0 h, and whole blood samples were collected subsequently (35 µl at 0.1 (iv) / 0.25 (po), 0.5, 1, 2, 4, 6 h; 600 µl at sacrifice after 24 h). Animals were euthanized by exsanguination in deep isoflurane anesthesia. Whole blood samples were immediately stored on ice at about 4 °C. Plasma was separated by centrifugation at approximately 10,000 × g for 5 m at +4 °C. Centrifugation of each blood sample was started within 10 m after collection. A single aliquot of at least 15 µL of plasma was prepared and immediately stored at −20 ± 5 °C.
# Sample proteins were precipitated with ACN (1 + 12, v/v) containing internal standard, and supernatants analyzed by quantitative UPLC-MS/MS: Phenomenex Luna Omega C18, 2.1 × 50 mm, 1.6 µm, 40 °C, gradient between 10% - 90% ACN with 0.1% formic acid. LogD determination: Lipophilicity of the test items, expressed as chromLogD7.5, was assessed by measuring their chromatographic retention times on C18-material. The chromatographic retention versus logD7.5 values of a series of thirteen n-alkan-2-ones (2-butanone – 2-hexadecanone) served as lipophilicity calibration.
# Msm 607 = experiment: microbe, parasite or virus in culture; format: cell-based; settings: Mycolicibacterium smegmatis, 607, read-out: MIC Msm 607
# [1] = test system: M. tuberculosis H37Rv (ATCC 27294); experiment: microbe, parasite or virus in culture; format: cell-based
# [2] = iv bolus, individual animals 1-3
# [3] = iv bolus, mice, Mean, BLOQ <1.00 nmol/l
# [4] = male, BALB/cAnNCrl, mouse, in vivo, iv, 0.0677 umol/kg, iv bolus, individual animals 1-3
# [5] = male, BALB/cAnNCrl, mouse, in vivo, iv, 0.0677 umol/kg, iv bolus, mice, Mean
structure (smiles),measurement,setting,value
CO[C@H](c1ccccc1)[C@@H]1NC(=O)[C@H](C)NC(=O)[C@H](C[C@@H](C)CO)N(C)C(=O)[C@H](Cc2cn(Cc3cn(CCOCCn4cc(Cn5cc(C[C@@H]6NC(=O)[C@H](C(C)C)NC(=O)[C@H](CC(C)C)N(C)C(=O)[C@H](C(C)C)NC(=O)[C@H]([C@H](OC)c7ccccc7)NC(=O)[C@H](C)NC(=O)[C@H](C[C@@H](C)CO)N(C)C6=O)c6ccccc65)nn4)nn3)c3ccccc23)NC(=O)[C@H](C(C)C)NC(=O)[C@H](CC(C)C)N(C)C(=O)[C@H](C(C)C)NC1=O [Compound 6],Cmax,"in vivo; dose-normalized, mice, 1 mg kg-1 iv bolus",1820 nM/(nmol kg-1)
same,AUC0-inf/Dose,in vivo; [2],3260 h nM/(nmol kg-1) and 5150 h nM/(nmol kg-1) and 5870 h nM/(nmol kg-1)
same,AUC0-t/Dose,in vivo; [2],2600 h nM/(nmol kg-1) and 5020 h nM/(nmol kg-1) and 5730 h nM/(nmol kg-1)
same,CL,in vivo; [2],3.2 mL/min/kg and 2.8 mL/min/kg
same,CL PL QH,in vivo; [2],5.7% and 3.6% and 3.2%
same,MRT,in vivo; [2],5.1 h and 5.3 h
same,Plasma concentration 0.1 h,in vivo; [2],128 nM and 127 nM and 114 nM
same,Plasma concentration 0.5 h,in vivo; [2],47.9 nM and 51.6 nM and 58 nM
same,Plasma concentration 1 h,in vivo; [2],44.8 nM and 45.0 nM and 44.5 nM
same,Plasma concentration 2 h,in vivo; [2],32.5 nM and 36.4 nM and 39.6 nM
same,Plasma concentration 4 h,in vivo; [2],17.3 nM and 22.2 nM and 13.8 nM
same,Vss,in vivo; [2],1.0 L/kg and 0.9 L/kg
same,t1/2,in vivo; [2],4.8 h and 4.9 h
same,Plasma concentration 6 h,"in vivo; iv bolus, individual animals 1-3, BLOQ <1.00 nmol/l",11.6 nM and 14.7 nM and 20.6 nM
same,Cmax,"in vivo; iv bolus, individual animals 1-3, read-out: Cmax",127 nM and 114 nM
same,AUC0-inf/Dose,"in vivo; iv bolus, mice, Mean",4760 h nM/(nmol kg-1)
same,AUC0-t/Dose,"in vivo; iv bolus, mice, Mean",4450 h nM/(nmol kg-1)
same,CL PL QH,"in vivo; iv bolus, mice, Mean",4.1%
same,Plasma concentration 0.1 h,"in vivo; iv bolus, mice, Mean",123 nM
same,Plasma concentration 0.5 h,"in vivo; iv bolus, mice, Mean",52.5 nM
same,Plasma concentration 1 h,"in vivo; iv bolus, mice, Mean",44.8 nM
same,Plasma concentration 2 h,"in vivo; iv bolus, mice, Mean",36.2 nM
same,Plasma concentration 4 h,"in vivo; iv bolus, mice, Mean",17.8 nM
same,Plasma concentration 6 h,in vivo; [3],15.6 nM
same,Plasma concentration 24 h,in vivo; [3],1.3 nM
same,tmax,"in vivo; male, BALB/cAnNCrl, mouse, in vivo, 0.0677 umol/kg, iv bolus, individual animals 1-3",6 min
same,clearance,in vivo; [4],5.1 mL/min/kg
same,half-life,in vivo; [4],2.7 h
same,Cmax,"in vivo; male, BALB/cAnNCrl, mouse, in vivo, iv, 0.0677 umol/kg, iv bolus, individual animals 1-3, read-out: Cmax",128 nM
same,MRT,"in vivo; male, BALB/cAnNCrl, mouse, in vivo, iv, 0.0677 umol/kg, iv bolus, individual animals 1-3, read-out: MRT",3.6 h
same,Vd,"in vivo; male, BALB/cAnNCrl, mouse, in vivo, iv, 0.0677 umol/kg, iv bolus, individual animals 1-3, read-out: Vss",1.1 L/kg
same,clearance,in vivo; [5],3.7 mL/min/kg
same,half-life,in vivo; [5],4.1 h
same,Cmax,"in vivo; male, BALB/cAnNCrl, mouse, in vivo, iv, 0.0677 umol/kg, iv bolus, mice, Mean, read-out: Cmax",123 nM
same,MRT,"in vivo; male, BALB/cAnNCrl, mouse, in vivo, iv, 0.0677 umol/kg, iv bolus, mice, Mean, read-out: MRT",4.7 h
same,Vd,"in vivo; male, BALB/cAnNCrl, mouse, in vivo, iv, 0.0677 umol/kg, iv bolus, mice, Mean, read-out: Vss",1 L/kg
same,Vd,"in vivo; male, BALB/cAnNCrl, mouse, in vivo, iv, 1 mg/kg, mice, 1 mg kg-1 iv bolus, read-out: VSS",0.95 L/kg
same,clearance,"in vivo; male, BALB/cAnNCrl, mouse, in vivo, iv, 1 mg/kg, plasma clearance, mice, 1 mg kg-1 iv bolus",3.73 mL/min/kg
same,half-life,"in vivo; male, BALB/cAnNCrl, mouse, in vivo, iv, 1 mg/kg, plasma, mice, 1 mg kg-1 iv bolus",3.33 h
same,MIC,Msm 607,2.3 ± 0.9 µM
same,MIC,"[1]; Mycobacterium tuberculosis, M. tuberculosis H37Rv strain, read-out: MIC Mtb H37Rv Mean ± SD",0.4 ± 0.3 µM
same,MIC,"[1]; Mycobacterium tuberculosis, Mtb H37Rv (Supplementary Table 2), read-out: MIC Mtb",0.4 ± 0.3 µM
same,MIC,"[1]; individual measurements (source data), read-out: Mtb MIC",0.390 µM and 0.780 µM and 0.097 µM and 0.195 µM
